Measured values as given in ChEMBL document CHEMBL4507260 (2021).

Tests used:
Details in all cases: Compound concentration 1000.0 nM
[1] = target: Mitogen-activated protein kinase 11 (Homo sapiens) (UniProt Q15759)
[2] = target: Serine/threonine-protein kinase Nek6 (Homo sapiens) (UniProt Q9HC98)
[3] = system: Receptor-type tyrosine-protein kinase FLT3 (Homo sapiens), P36888 [UNDEFINED MUTATION]
[4] = target: Vascular endothelial growth factor receptor 3 (Homo sapiens) (UniProt P35916)
[5] = target: Serine/threonine-protein kinase Chk1 (Homo sapiens) (UniProt O14757)
[6] = system: Phosphatidylinositol 4,5-bisphosphate 3-kinase catalytic subunit alpha isoform (Homo sapiens), P42336 [H1047Y]
[7] = target: Proto-oncogene tyrosine-protein kinase Src (Homo sapiens) (UniProt P12931)
[8] = target: Tyrosine-protein kinase Fyn (Homo sapiens) (UniProt P06241)
[9] = target: Serine/threonine-protein kinase SBK1 (Homo sapiens) (UniProt Q52WX2)
[10] = target: Inhibitor of nuclear factor kappa-B kinase subunit beta (Homo sapiens) (UniProt O14920)
[11] = target: Proto-oncogene tyrosine-protein kinase receptor Ret (Homo sapiens) (UniProt P07949)
[12] = target: Cyclin-dependent kinase 7 (Homo sapiens) (UniProt P50613)
[13] = target: Mitogen-activated protein kinase 7 (Homo sapiens) (UniProt Q13164)
[14] = target: Ephrin type-B receptor 2 (Homo sapiens) (UniProt P29323)
[15] = target: Ribosomal protein S6 kinase alpha-5 (Homo sapiens) (UniProt O75582)
[16] = target: Casein kinase I isoform delta (Homo sapiens) (UniProt P48730)
[17] = target: Ribosomal protein S6 kinase alpha-3 (Homo sapiens) (UniProt P51812)
[18] = target: Epithelial discoidin domain-containing receptor 1 (Homo sapiens) (UniProt Q08345)
[19] = target: Serine/threonine-protein kinase pim-2 (Homo sapiens) (UniProt Q9P1W9)
[20] = system: Proto-oncogene tyrosine-protein kinase receptor Ret (Homo sapiens), P07949 [M918T]
[21] = target: Mitogen-activated protein kinase 3 (Homo sapiens) (UniProt P27361)
[22] = target: Mitogen-activated protein kinase kinase kinase kinase 5 (Homo sapiens) (UniProt Q9Y4K4)
[23] = target: Serine/threonine-protein kinase tousled-like 1 (Homo sapiens) (UniProt Q9UKI8)
[24] = target: Fibroblast growth factor receptor 4 (Homo sapiens) (UniProt P22455)
[25] = target: Serine/threonine-protein kinase TAO1 (Homo sapiens) (UniProt Q7L7X3)
[26] = system: Epidermal growth factor receptor (Homo sapiens), P00533 [T790M]
[27] = target: Proto-oncogene tyrosine-protein kinase ROS (Homo sapiens) (UniProt P08922)
[28] = target: Ephrin type-A receptor 3 (Homo sapiens) (UniProt P29320)
[29] = target: Mitogen-activated protein kinase 15 (Homo sapiens) (UniProt Q8TD08)
[30] = target: Myosin light chain kinase family member 4 (Homo sapiens) (UniProt Q86YV6)
[31] = target: Mitogen-activated protein kinase 10 (Homo sapiens) (UniProt P53779)
[32] = target: Serine/threonine-protein kinase 33 (Homo sapiens) (UniProt Q9BYT3)
[33] = target: Myosin-IIIa (Homo sapiens) (UniProt Q8NEV4)
[34] = system: Epidermal growth factor receptor (Homo sapiens), P00533 [UNDEFINED MUTATION]
[35] = target: Serine/threonine-protein kinase Sgk2 (Homo sapiens) (UniProt Q9HBY8)
[36] = target: Serine/threonine-protein kinase pim-3 (Homo sapiens) (UniProt Q86V86)
[37] = target: Dual specificity mitogen-activated protein kinase kinase 2 (Homo sapiens) (UniProt P36507)
[38] = target: NUAK family SNF1-like kinase 2 (Homo sapiens) (UniProt Q9H093)
[39] = target: Serine/threonine-protein kinase 4 (Homo sapiens) (UniProt Q13043)
[40] = target: Non-receptor tyrosine-protein kinase TYK2 (Homo sapiens) (UniProt P29597)
[41] = target: Serine/threonine-protein kinase NLK (Homo sapiens) (UniProt Q9UBE8)
[42] = target: Cyclin-dependent kinase 8 (Homo sapiens) (UniProt P49336)
[43] = system: Hepatocyte growth factor receptor (Homo sapiens), P08581 [M1250T]
[44] = target: MAP/microtubule affinity-regulating kinase 3 (Homo sapiens) (UniProt P27448)
[45] = target: G protein-coupled receptor kinase 4 (Homo sapiens) (UniProt P32298)

Measured: residual activity

Inhibitor of nuclear factor kappa-B kinase subunit beta (Homo sapiens), sequence (O14920 whole entry): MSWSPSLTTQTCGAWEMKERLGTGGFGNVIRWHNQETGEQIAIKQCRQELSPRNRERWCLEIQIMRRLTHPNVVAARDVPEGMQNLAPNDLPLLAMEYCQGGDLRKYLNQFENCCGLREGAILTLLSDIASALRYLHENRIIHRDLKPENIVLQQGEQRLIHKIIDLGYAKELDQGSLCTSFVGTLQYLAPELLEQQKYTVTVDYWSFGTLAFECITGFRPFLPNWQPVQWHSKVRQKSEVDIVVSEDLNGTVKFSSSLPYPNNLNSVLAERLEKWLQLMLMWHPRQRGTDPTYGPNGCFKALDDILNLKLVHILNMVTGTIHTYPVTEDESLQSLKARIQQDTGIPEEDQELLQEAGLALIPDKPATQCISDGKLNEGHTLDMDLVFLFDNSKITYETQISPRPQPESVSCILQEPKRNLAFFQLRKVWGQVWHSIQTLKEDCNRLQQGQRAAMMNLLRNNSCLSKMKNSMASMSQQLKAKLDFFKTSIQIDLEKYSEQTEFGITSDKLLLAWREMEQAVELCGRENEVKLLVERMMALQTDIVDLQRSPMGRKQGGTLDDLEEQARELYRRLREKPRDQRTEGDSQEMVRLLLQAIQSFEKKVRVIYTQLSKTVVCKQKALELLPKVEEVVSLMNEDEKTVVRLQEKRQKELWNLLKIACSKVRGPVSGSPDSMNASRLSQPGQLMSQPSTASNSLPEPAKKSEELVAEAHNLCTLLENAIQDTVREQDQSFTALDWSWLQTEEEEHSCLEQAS
Serine/threonine-protein kinase 4 (Homo sapiens), sequence (Q13043 whole entry): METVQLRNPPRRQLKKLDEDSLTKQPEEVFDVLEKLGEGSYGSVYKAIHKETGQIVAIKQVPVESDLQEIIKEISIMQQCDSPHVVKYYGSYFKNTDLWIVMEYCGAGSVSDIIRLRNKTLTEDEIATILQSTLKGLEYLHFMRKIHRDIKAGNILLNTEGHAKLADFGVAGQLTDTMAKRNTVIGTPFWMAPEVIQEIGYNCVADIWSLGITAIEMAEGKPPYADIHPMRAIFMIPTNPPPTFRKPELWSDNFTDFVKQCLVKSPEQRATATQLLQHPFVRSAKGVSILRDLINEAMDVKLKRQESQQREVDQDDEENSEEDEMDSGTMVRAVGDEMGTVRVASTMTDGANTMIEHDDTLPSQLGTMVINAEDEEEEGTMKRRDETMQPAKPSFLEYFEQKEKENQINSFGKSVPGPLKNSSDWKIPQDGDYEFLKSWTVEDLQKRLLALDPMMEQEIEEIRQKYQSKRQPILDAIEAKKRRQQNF
Serine/threonine-protein kinase tousled-like 1 (Homo sapiens), sequence (Q9UKI8 whole entry): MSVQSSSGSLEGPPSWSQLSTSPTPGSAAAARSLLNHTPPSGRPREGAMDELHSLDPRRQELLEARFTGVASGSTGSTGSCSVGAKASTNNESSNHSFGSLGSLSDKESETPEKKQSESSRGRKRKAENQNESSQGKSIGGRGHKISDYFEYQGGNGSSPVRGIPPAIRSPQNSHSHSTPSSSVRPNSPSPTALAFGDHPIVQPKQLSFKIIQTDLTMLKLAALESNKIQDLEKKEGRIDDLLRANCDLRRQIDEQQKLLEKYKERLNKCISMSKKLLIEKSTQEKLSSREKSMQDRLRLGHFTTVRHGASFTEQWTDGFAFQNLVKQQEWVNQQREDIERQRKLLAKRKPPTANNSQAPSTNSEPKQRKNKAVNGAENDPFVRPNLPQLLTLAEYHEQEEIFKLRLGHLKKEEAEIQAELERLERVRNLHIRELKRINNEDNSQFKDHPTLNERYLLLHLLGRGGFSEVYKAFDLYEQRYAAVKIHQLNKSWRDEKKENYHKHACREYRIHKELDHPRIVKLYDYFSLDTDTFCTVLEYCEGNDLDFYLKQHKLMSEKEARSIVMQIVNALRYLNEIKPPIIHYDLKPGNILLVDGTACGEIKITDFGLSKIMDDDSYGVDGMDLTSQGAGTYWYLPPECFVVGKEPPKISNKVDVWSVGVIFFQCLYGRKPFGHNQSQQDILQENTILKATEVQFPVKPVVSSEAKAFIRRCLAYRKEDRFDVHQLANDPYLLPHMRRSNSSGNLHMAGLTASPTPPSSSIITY
Proto-oncogene tyrosine-protein kinase receptor Ret (Homo sapiens), sequence (P07949 whole entry): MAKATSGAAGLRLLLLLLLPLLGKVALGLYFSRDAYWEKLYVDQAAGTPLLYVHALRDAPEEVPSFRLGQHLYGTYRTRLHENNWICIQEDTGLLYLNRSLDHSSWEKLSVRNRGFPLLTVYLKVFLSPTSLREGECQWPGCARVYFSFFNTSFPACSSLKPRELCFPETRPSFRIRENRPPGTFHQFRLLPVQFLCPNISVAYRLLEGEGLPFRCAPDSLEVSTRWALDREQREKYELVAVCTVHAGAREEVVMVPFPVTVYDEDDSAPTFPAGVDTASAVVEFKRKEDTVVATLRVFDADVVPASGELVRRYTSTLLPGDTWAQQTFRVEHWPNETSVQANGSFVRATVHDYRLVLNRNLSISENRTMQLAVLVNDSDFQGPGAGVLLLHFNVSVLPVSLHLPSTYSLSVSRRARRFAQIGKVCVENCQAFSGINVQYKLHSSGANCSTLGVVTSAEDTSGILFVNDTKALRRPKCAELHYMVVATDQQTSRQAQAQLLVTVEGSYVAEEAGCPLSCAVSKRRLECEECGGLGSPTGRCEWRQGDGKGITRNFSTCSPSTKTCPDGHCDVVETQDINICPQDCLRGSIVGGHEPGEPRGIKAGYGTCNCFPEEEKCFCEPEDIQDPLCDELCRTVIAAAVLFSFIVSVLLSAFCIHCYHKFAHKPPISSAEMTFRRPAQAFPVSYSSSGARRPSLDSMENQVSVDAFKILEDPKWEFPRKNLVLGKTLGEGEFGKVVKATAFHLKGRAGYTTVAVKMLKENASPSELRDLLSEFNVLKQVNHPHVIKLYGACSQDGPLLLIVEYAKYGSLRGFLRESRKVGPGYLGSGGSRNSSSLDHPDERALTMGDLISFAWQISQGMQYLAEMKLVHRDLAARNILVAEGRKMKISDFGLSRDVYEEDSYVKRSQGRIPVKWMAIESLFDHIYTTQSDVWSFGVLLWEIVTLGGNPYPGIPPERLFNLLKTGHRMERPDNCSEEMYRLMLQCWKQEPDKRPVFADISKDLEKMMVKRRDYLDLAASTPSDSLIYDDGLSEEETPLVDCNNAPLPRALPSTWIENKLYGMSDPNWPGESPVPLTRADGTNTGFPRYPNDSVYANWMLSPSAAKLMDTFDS
Tyrosine-protein kinase Fyn (Homo sapiens), sequence (P06241 2-537 limits assumed): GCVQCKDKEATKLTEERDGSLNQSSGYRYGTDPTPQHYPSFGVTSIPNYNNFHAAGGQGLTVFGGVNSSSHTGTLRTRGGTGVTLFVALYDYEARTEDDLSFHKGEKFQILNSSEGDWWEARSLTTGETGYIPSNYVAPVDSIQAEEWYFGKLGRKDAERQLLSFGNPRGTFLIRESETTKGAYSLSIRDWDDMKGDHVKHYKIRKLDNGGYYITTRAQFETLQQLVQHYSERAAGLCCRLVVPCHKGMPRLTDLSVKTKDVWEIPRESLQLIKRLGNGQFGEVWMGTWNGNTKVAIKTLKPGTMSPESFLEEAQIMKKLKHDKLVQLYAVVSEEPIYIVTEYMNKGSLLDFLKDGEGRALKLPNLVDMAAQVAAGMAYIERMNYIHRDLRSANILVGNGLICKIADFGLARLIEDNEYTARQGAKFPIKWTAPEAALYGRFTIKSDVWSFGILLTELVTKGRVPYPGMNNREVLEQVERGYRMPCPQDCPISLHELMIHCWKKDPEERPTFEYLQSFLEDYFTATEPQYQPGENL
Receptor-type tyrosine-protein kinase FLT3 (Homo sapiens), P36888 [UNDEFINED MUTATION], sequence (P36888 whole entry, looked up, change not shown): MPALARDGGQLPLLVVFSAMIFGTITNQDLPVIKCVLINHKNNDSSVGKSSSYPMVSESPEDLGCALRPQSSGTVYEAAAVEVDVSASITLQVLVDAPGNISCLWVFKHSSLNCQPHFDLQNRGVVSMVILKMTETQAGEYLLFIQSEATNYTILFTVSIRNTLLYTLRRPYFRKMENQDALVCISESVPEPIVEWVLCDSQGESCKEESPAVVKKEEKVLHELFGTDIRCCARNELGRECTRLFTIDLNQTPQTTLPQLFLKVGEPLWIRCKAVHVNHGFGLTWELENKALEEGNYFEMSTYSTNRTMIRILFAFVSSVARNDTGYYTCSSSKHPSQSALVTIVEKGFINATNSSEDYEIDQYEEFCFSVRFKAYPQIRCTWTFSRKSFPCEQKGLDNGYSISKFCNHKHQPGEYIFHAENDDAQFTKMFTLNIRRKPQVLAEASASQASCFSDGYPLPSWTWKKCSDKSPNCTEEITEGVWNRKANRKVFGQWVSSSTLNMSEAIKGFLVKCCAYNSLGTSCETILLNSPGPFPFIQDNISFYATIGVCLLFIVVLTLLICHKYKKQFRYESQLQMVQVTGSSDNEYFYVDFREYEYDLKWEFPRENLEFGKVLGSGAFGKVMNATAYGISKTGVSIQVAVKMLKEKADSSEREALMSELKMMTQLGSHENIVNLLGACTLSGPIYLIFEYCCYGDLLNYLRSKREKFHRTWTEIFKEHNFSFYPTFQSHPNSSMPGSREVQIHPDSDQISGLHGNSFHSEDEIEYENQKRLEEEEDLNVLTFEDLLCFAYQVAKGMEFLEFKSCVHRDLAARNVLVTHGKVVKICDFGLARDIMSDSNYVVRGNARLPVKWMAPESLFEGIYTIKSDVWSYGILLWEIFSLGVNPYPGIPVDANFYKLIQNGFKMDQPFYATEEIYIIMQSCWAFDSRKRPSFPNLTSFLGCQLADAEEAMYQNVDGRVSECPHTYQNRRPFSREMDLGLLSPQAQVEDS
Serine/threonine-protein kinase SBK1 (Homo sapiens), sequence (Q52WX2 whole entry): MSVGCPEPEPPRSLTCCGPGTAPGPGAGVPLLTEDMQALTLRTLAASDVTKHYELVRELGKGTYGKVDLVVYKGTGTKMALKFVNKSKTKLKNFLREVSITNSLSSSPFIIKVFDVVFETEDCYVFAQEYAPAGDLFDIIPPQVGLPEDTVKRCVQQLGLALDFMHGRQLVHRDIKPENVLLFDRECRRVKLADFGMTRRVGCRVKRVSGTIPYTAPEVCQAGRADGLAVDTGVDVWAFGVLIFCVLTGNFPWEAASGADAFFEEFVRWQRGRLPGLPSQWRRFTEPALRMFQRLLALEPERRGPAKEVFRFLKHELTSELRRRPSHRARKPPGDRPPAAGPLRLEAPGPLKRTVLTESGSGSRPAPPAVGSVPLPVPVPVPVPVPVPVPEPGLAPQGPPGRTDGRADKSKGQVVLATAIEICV

c1ccc(N2CCN(Cc3nc4ccccc4[nH]3)CC2)nc1 [ABT-724]
inactive: [1] 88% | [2] 100% | [3] 100% | [4] 100% | [5] 100% | [6] 79% | [7] 93% | [8] 100% | [9] 100% | [10] 100% | [11] 100% | [13] 100% | [14] 98% | [15] 85% | [16] 95% | [17] 100% | [18] 100% | [19] 85% | [20] 100% | [21] 100% | [22] 100% | [23] 95% | [24] 93% | [25] 100% | [26] 99% | [27] 100% | [28] 100% | [29] 100% | [30] 97% | [31] 100% | [32] 97% | [33] 100% | [34] 100% | [35] 100% | [36] 100% | [37] 100% | [38] 100% | [39] 100% | [40] 100% | [41] 100% | [42] 100% | [43] 100% | [44] 100% | [45] 100%
active: [12] 48%

CSc1cccnc1N1CCN(Cc2nc3ccccc3[nH]2)CC1 [A-769]
inactive: [1] 100% | [2] 98% | [3] 100% | [4] 100% | [5] 94% | [6] 100% | [7] 100% | [8] 100% | [9] 99% | [10] 86% | [11] 94% | [12] 61% | [13] 100% | [14] 99% | [15] 100% | [16] 100% | [17] 83% | [18] 100% | [19] 96% | [20] 99% | [21] 99% | [22] 100% | [23] 100% | [24] 89% | [25] 100% | [26] 85% | [27] 100% | [28] 100% | [29] 82% | [30] 100% | [31] 66% | [32] 91% | [33] 100% | [34] 100% | [35] 81% | [36] 94% | [37] 70% | [38] 100% | [39] 85% | [40] 84% | [41] 100% | [42] 87% | [43] 98% | [44] 98% | [45] 88%
